Measurements: patent US7276576B1, “Mammalian ICYP (iodocyanopindolol) receptor and its applications” (Dainippon Sumitomo Pharma Co., Ltd., priority 1996, dated 2007)
Where two headings read alike, the source gives them in different places.

Tests used:
guinea pig eosinophil = experiment: Leukotriene B4 induced guinea pig eosinophil chemotaxis; format: cell-based; details: for Effect of antagonist on the inhibition of eosinophil chemotaxis: inhibition by SM-11044 and BRL-35135A
[1] = biological target: T1, [125I]-ICYP specific binding site (SMBP, SM-11044 binding protein) in rat colon smooth muscle membranes (Rattus norvegicus, UniProt A0A8I6A822); experiment: [125I]-ICYP saturation and competition binding to rat colon membranes (Example 2); details: for Ki: read-out: Ki on [125I]-ICYP specific binding to rat colon membranes; for Displacement of [125I]-ICYP specific binding (in words): competition binding, no concentration stated
T1 construct: Membranes from colon smooth muscles were prepared as essentially described by Ek et al., 1986; from tissue
T1 sequence (A0A8I6A822 27-587): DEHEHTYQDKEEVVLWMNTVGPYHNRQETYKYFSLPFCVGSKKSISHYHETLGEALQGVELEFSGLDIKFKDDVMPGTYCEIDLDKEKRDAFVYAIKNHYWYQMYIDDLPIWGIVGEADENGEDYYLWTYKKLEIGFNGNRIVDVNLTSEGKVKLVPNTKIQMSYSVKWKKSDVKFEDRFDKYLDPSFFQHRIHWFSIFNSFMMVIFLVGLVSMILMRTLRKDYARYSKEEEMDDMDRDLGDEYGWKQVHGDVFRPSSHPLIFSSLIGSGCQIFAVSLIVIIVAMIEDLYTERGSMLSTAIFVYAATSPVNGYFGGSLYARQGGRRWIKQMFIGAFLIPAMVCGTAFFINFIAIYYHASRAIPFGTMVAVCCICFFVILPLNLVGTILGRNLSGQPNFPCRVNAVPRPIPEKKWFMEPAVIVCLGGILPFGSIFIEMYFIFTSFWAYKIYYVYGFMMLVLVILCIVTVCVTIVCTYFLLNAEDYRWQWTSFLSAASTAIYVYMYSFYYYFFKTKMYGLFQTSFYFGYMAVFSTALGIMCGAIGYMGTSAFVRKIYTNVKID
Description: Incubations were carried out at 37° C. for 30 min in a shaking water-bath incubator and terminated by addition of 4 ml of ice-cold Tris-saline followed by rapid filtration under vacuum on Whatman GF/B filter presoaked in Tris-saline containing 0.1% polyethyleneimine (pH 7.4). The filters were washed three times with 4 ml of ice-cold Tris-saline, transferred to plastic tubes and counted in a γ-counter.
Hill coefficient was calculated by linear regression using saturation experiment data. Pseudo-Hill coefficient and IC50 were determined by the computer program, InPlot™ (GraphPad Software, CA, USA).

[2] = biological target: T2, SMBP in rat colon smooth muscle membranes (Rattus norvegicus, UniProt A0A8I6A822); experiment: [125I]-ICYP saturation binding to rat colon membranes (Example 1); details: means ± SD
T2 construct: Membranes from colon smooth muscles were prepared as essentially described by Ek et al., 1986; from tissue
T2 sequence (A0A8I6A822 27-587): as above
Description: Frozen rat colons (SD strains, male and female) were purchased from Pel-Freeze Biologicals (Arkansas, USA). Membranes from colon smooth muscles were prepared as essentially described by Ek et al., 1986, with the slight following modifications. The colon segment was washed in ice-cold Tris-saline (10 mM Tris/HCl, 154 mM NaCl, (pH 7.4)), cut open longitudinally and the mucosa was removed by scrubbing with a glass slide on ice-cold plastic plate. The smooth muscle preparations were homogenized with a Polytron homogenizer for 1 min. The homogenate was filtered through a gauze and centrifuged (1,500×g for 20 min at 4° C.), the supernatant was collected and centrifuged (50,000×g for 20 min at 4° C.). The pellet comprising the membranes was resuspended in Tris-saline and was stored at −80° C. until use. The protein concentration was determined by Bio-Rad protein assay kit (Bio-Rad USA).
Saturation binding studies were performed in a final volume of 200 μl of Tris-saline containing 50 μg membrane proteins and different concentrations (0.05-25 nM) of [^125I]-ICYP, in the presence of 10 μM serotonine (5-HT), 10 μM phentolamine, 20 μM (±) propranolol and 1.1 mM ascorbic-acid pH 7.4), to block possible 5-HT receptors, ARs and oxidation of catecholamines, respectively. […] The filters were washed three times with 4 ml of ice-cold Tris-saline, transferred to plastic tubes and counted in a γ-counter.

[3] = tested on: rat colon smooth muscle segment; experiment: Relaxation of KCl-induced tonus in rat colon segment (organ bath); details: for IA, rat colon relaxation: relative to isoproterenol; for EC50: Rattus norvegicus, read-out: pD2, rat colon relaxation (converted)
Description: Rat colon segment (2 cm) was suspended in organ bath containing 10 ml modified-Tyrode solution (Sugasawa T. et al. Eur. J. Pharmacol., 1992, 216, 207-215). The Tyrode solution contained 0.5 μM atropine, 0.5 μM desmethylimipramine, 30 μM hydrocortisone, 30 μM ascorbic acid, 10 μM phentolamine and 1 μM propranolol throughout study, in order to inhibit spontaneous contraction, neuronal and extra-neuronal uptake of norepinephrine, oxidation of catecholamines, possible α, β1- and β2-AR effects, respectively.
The relaxant action of agonists was determined by measuring relaxation of KCl (100 mM)-induced tonus evoked by cumulative addition of the agonists as described previously (Sugasawa T. et al. cited above). In the case of testing the effect of cyanopindolol, it was added 5-10 min before the addition of agonist.
(§1) Agonist concentration-ratios (CR) were determined from the EC50 values of the concentration-response curves of agonists with or without cyanopindolol, according to the method of Arunlakshana et al., 1959.
(§2) The EC50 values were calculated using the computer program, InPlot™.

rat white adipocytes = experiment: Lipolysis in rat white adipocytes; format: cell-based; details: for IA, rat white adipocyte lipolysis: relative to isoproterenol; for EC50: Rattus norvegicus, Adipocyte, read-out: pD2, rat white adipocyte lipolysis (converted)
Description: White adipocytes were isolated from epididymal fat pads of male Wistar rats (190-230 g) and lipolysis was determined according to the previous report (Sugasawa T. et al. cited above). The cells were preincubated for 5 min at 37° C. in the presence of 30 μM ascorbic acid, 10 μM phentolamine and 1 μM propranolol.
Agonists were then applied and incubated for 90 min. In the case of testing the effect of cyanopindolol, it was added 5 min before the addition of agonist.
as §1, §2

[4] = biological target: T3, 34 kDa photoaffinity-labeled protein (SMBP) in rat colon membranes (Rattus norvegicus, UniProt A0A8I6A822); experiment: Photoaffinity labeling of rat colon membranes with [125I]-ICYP-diazirine; format: binding
T3 construct: Membranes from colon smooth muscles were prepared as essentially described by Ek et al., 1986; from tissue
T3 sequence (A0A8I6A822 27-587): as above
Description: Incubations were carried out in the presence or absence of competitor at 37° C. for 45 min in the dark in a shaking water-bath incubator and terminated by addition of 10 ml of ice-cold Tris-saline followed by a rapid centrifugation (150,000×g for 10 min at 4° C.). The membranes were irradiated with a UV lamp for 5 min with cooling by circulating water. The labeled membranes were diluted with 10 ml of ice-cold Tris-saline, centrifuged (150,000×g for 30 min at 4° C.), and the pellet was resuspended in Tris-saline and kept at −80° C.
SDS-PAGE was performed under reducing conditions essentially as described by Laemmli, 1970, using 12% polyacrylamide gels (40% T, 2.6% C). […] After electrophoresis, the gels were dried and autoradiographed on X-OMAT™ AR film (Eastman Kodak Co., NY, USA), as specified in example 1, chapter <<(preparative SDS-PAGE>>.

[5] = 1 nM [125I]-ICYP, 10 μM 5-HT, 10 μM phentolamine and 20 μM propranolol
[6] = up to the concentration of 1 mM
[7] = 10 μM phentolamine and 1 μM propranolol, mean ± SEM

## C=CCc1ccccc1OCC(O)CNC(C)C (racemic) [(±)-alprenolol, alprenolol]
Guinea pig eosinophil
  Effect of antagonist on the inhibition of eosinophil chemotaxis: antagonized
[1]; [5]
  Pseudo-Hill coefficient: 0.85 ± 0.24
  Ki: 13.3 ± 2.4 µM

## Cc1ccc(Cl)c(OCC(O)CNC(C)(C)C)c1 (racemic) [(±)-bupranolol, bupranolol]
[1]; [5]
  Pseudo-Hill coefficient: 1.08 ± 0.08
  Ki: 11.3 ± 0.8 µM

## CC(C)NCC(O)COc1cccc2[nH]c3ccccc3c12 (racemic) [(±)-carazolol, carazolol]
[1]; [5]
  Pseudo-Hill coefficient: 0.77 ± 0.11
  Ki: 8.1 ± 1.7 µM
[1]
  Displacement of [125I]-ICYP specific binding (in words): less effective

## COC(=O)COc1ccc(OCCNCC(O)COc2ccccc2)cc1 (racemic) [ICI-198157, (RS)-4-[2-[(2-hydroxy-3-phenoxypropyl)amino]ethoxy]phenoxyacetic acid methyl ester]
[1]; [5]
  Pseudo-Hill coefficient: 0.96 ± 0.23
  Ki: 29.4 ± 8.9 µM
[1]
  Displacement of [125I]-ICYP specific binding (in words): displaced the specific binding

## O=C([C@@H](NCCCc1ccc(F)cc1)[C@@H](O)c1ccc(O)c(O)c1)N1CCCC1 (racemic) [SM-14010]
[1]; [5]
  Pseudo-Hill coefficient: 0.67 ± 0.13
  Ki: 29.3 µM

## O=C([C@@H](NCCCc1ccc(F)cc1)[C@H](O)c1ccc(O)c(O)c1)N1CCCC1 (racemic) [SM-14011]
[1]; [5]
  Pseudo-Hill coefficient: 1.07 ± 0.15
  Ki: 2 µM
[1]; ratio of Ki, SM-14011 vs SM-14010
  Effectiveness in competition binding relative to SM-14010: 15 times

## CCOC(=O)COc1ccc2c(c1)C[C@@H](NC[C@H](O)c1cccc(Cl)c1)CC2 (racemic) [SR-58611A, (RS)-N-(7 carbethoxymethoxyl-1,2,3,4-tetrahydronaphth-2-yl)-2-hydroxy-2-(3 chlorophenyl) ethanamine hydro-chloride]
[1]; [5]
  Pseudo-Hill coefficient: 1.21 ± 0.21
  Ki: 5.9 ± 1 µM

## CC(C)(C)NCC(O)COc1cccc2[nH]c(C#N)c(I)c12 (single isomer, unassigned; (-)) [[^125I]-ICYP, (−)-3-[^125I] iodocyanopindolol]
[2]; Example 1 membranes (SD rats), blockade of adrenergic and serotonine receptors, read-out: Dissociation constant (Kd), Scatchard plot
  Kd: 0.00722 ± 7e-06 µM
[1]; Example 2 membranes (Wistar rats), 10 μM 5-HT, 10 μM phentolamine and 20 μM propranolol, read-out: Dissociation constant (Kd), Scatchard plot
  Kd: 0.011 ± 0.00095 µM

## CC(C)(C)NCC(O)COc1cccc2[nH]c(C#N)c([125I])c12 (single isomer, unassigned; (-)) [[^125I]-ICYP, (−)-3-[^125I] iodocyanopindolol]
[2]; Example 1 membranes
  Maximum number of binding sites (Bmax): 1.13 ±0.071 pmol/mg membrane protein
[1]; 1 nM [125I]-ICYP, 30 min, n=2
  Specific binding at equilibrium levels: 82.7±1.9%
[1]; Example 2 membranes, 10 μM 5-HT, 10 μM phentolamine and 20 μM propranolol
  Maximum number of binding sites (Bmax): 716.7±21.12 fmol/mg protein
[1]; saturation experiment, 30 min incubation
  Hill coefficient of the saturation curve: 0.99±0.03

## NCCc1c[nH]c2ccc(O)cc12 [5-HT, serotonine]
[1]; [5]
  Ki: > 1000 µM
[1]; [6]
  Displacement of [125I]-ICYP specific binding: not displaced

## CNC[C@H](O)c1ccc(O)c(O)c1 [(−)-epinephrine, epinephrine]
[3]; [7]
  IA, rat colon relaxation: 0.86 ± 0.137
[3]
  EC50: 1.2 µM
[1]; [5]
  Ki: > 1000 µM
[1]; [6]
  Displacement of [125I]-ICYP specific binding: not displaced
Rat white adipocytes; [7]
  IA, rat white adipocyte lipolysis: 0.91 ± 0.036
Rat white adipocytes
  EC50: 6.92 µM

## NC[C@H](O)c1ccc(O)c(O)c1 [(−)-norepinephrine, norepinephrine]
[3]; [7]
  IA, rat colon relaxation: 0.85 ± 0.168
[3]
  EC50: 1.41 µM
[1]; [5]
  Ki: > 1000 µM
[1]; [6]
  Displacement of [125I]-ICYP specific binding: not displaced
Rat white adipocytes; [7]
  IA, rat white adipocyte lipolysis: 1.02 ± 0.058
Rat white adipocytes
  EC50: 3.98 µM

## COC(=O)COc1ccc(CC(C)NCC(O)c2cccc(Cl)c2)cc1 (stereo not drawn) [BRL-35135A, (R*R*)-(+)-4-[2′-[2-hydroxy 2-(3-chlorophenyl)ethylamino]propyl]phenoxyacetic acid methyl ester]
Guinea pig eosinophil
  Inhibition of leukotriene B4 induced guinea pig eosinophil chemotaxis: inhibiting
[1]; [5]
  Pseudo-Hill coefficient: 0.80 ± 0.14
  Ki: 1.4 ± 0.1 µM
[1]
  Displacement of [125I]-ICYP specific binding (in words): displaced the specific binding

## CC(Cc1ccc(OCC(=O)O)cc1)NCC(O)c1cccc(Cl)c1 (stereo not drawn) [BRL-37344]
[4]; competitor 100 μM, 1.5 nM [125I]-ICYP-diazirine, 10 μM 5-HT, 10 μM phentolamine, 20 μM propranolol
  Displacement of the photoaffinity-labeled 34 kDa band: not displaced
Guinea pig eosinophil
  Inhibition of leukotriene B4 induced guinea pig eosinophil chemotaxis: no such effect
[3]; [7]
  IA, rat colon relaxation: 1.00 ± 0.126
[3]; relaxation of KCl (100 mM)-induced tonus, 10 μM phentolamine and 1 μM propranolol, mean ± SEM
  EC50: 0.0316 µM
[1]; [5]
  Ki: > 100 µM
[1]; up to the concentration of 100 μM
  Displacement of [125I]-ICYP specific binding: did not displace
Rat white adipocytes; [7]
  IA, rat white adipocyte lipolysis: 0.72 ± 0.0333
  EC50: 0.0562 µM

## CC(C)(C)NCC(O)COc1cccc2[nH]c(=O)[nH]c12 (stereo not drawn) [CGP-12177A]
[1]; [5]
  Ki: > 100 µM

## NCCc1ccc(O)c(O)c1 [Dopamine, dopamine]
[1]; [5]
  Ki: > 1000 µM
[1]; [6]
  Displacement of [125I]-ICYP specific binding: not displaced

## Nc1nc2c(ncn2[C@@H]2O[C@H](COP(=O)(O)OP(=O)(O)OP(=O)(O)O)[C@@H](O)[C@H]2O)c(=O)[nH]1 [GTP]
[1]; at 300 μM, n=2
  Inhibition of [125I]-ICYP specific binding: 29.8±2.7%
[1]; at 1 mM, n=2
  Inhibition of [125I]-ICYP specific binding: 98.2 ± 1.3%

## Cc1ccc(OCC(O)C(C)NC(C)C)c2c1CCC2 (stereo not drawn) [ICI-118551]
[1]; [5]
  Pseudo-Hill coefficient: 0.89 ± 0.14
  Ki: 28.5 µM

## O=C(O)COc1ccc(OCCNCC(O)COc2ccccc2)cc1 (stereo not drawn) [ICI-201651]
[1]; [5]
  Ki: > 100 µM

## O=C(O)COc1ccc(OCCNC[C@H](O)COc2ccccc2)cc1 [ICI-215001]
[1]; [5]
  Ki: > 100 µM

## O=C([C@H](NCCCc1ccc(F)cc1)[C@@H](O)c1ccc(O)c(O)c1)N1CCCC1 [SM-14786]
[1]; [5]
  Pseudo-Hill coefficient: 0.92 ± 0.15
  Ki: 3.7 ± 0.4 µM

## CC(C)NCC(O)COc1cccc2ccccc12 (stereo not drawn) [propranolol]
[4]; competitor 20 μM, 10 μM 5-HT and 10 μM phentolamine
  Effect on photoaffinity-labeled bands: only the 34 kDa band remained visible
Guinea pig eosinophil
  Effect of antagonist on the inhibition of eosinophil chemotaxis: unaffected
